# How the values were obtained:
# rats = conditions: experiments of GB 1 468 998; cited from earlier work
# [1] = after administration; Arzneimittelforschung 1979, 29 (9A) 1477-79; cited from earlier work
# [2] = test system: chickens raised for market; test: Feed for chickens raised for market (feed additive trial); type: in vivo; set-up: dose or concentration left out as unconfirmed; conditions: 0.2 wt.-% added to air-dried food
# Protocol: 2. Animal Feed Additive • 2.1 A formulation consisting of 5,000 mg creatinol-O -phosphate and 5,000 mg inulin was added to a typical formula for feed pellets as a food supplement for horses. • 2.2 A formulation consisting of 7,000 mg creatinol sulfate, 750 mg carnitine tartrate, 100 mg sucrose stearate, 160 mg talc, and 1,090 mg fructose was added to the base mixture for making dog biscuits. • 2.3 As a master batch, the following formulation was added to a regular commercial canned cat food mixture: 3,000 mg creatinol sulfate, 3,000 mg creatine, 40 mg magnesium stearate, 25 mg carboxymethylcellulose and 135 mg lactose. • 2.4 Feed for chickens raised for market
# In addition the feed consumption was about 2 to 3% less than in former feeding methods.
compound,measurement,setting,value
CN(CCO)C(=N)N.NC(CC(=O)O)C(=O)O (stereo not shown) [creatinol aspartate],swimming activity increased,rats,30%
CN(CCOP(=O)(O)O)C(=N)N [creatinol-O-phosphate],creatinine levels in the urine,[1],increase
same,meat quality,[2]; 41 days feeding time,improved quality
same,increase in the final weight versus former feeding methods without addition of creatinol,[2]; after 41 days feeding time,4%
